# Values quoted from earlier work, collected in US20040023994A1 (priority 2002, published 2004).
# Legend:
# SF-268 = conditions: SF-268, CNS, NCI database, cited from earlier work
# HS 578T = conditions: Breast, NCI database, cited from earlier work
# SK-MEL-2 = conditions: SK-MEL-2, Melanoma, NCI database, cited from earlier work
# SK-MEL-5 = conditions: SK-MEL-5, Melanoma, NCI database, cited from earlier work
# UACC-62 = conditions: UACC-62, Melanoma, NCI database, cited from earlier work
# CCRF-CEM = conditions: Leukemia, NCI database, cited from earlier work
# SNB-75 = conditions: SNB-75, CNS, NCI database, cited from earlier work
# KM12 = conditions: KM12, Colon, NCI database, cited from earlier work
# MALME-3M = conditions: Melanoma, NCI database, cited from earlier work
# MDA-N = conditions: Breast, NCI database, cited from earlier work
# NCI-H23 = conditions: NCI-H23, Non-Small Cell Lung, NCI database, cited from earlier work
# UO-31 = conditions: UO-31, Renal, NCI database, cited from earlier work
# HCT-15 = conditions: HCT-15, Colon, NCI database, cited from earlier work
# MDA-MB-231/ATCC = conditions: Breast, NCI database, cited from earlier work
# LOX IMVI = conditions: Melanoma, NCI database, cited from earlier work
# [1] = read-out: LC50 (the source's name)
structure (smiles),measurement,setting,value
"Nc1nc2nc[nH]c2c(=S)[nH]1 [6-TG, 6-thioguanine]",GI50,SF-268,1.14 µM
same,TGI,SF-268,>100 µM
same,CC50,SF-268; [1],> 100 µM
same,CC50,HS 578T; [1],> 100 µM
same,GI50,HS 578T,7.26 µM
same,TGI,HS 578T,>100 µM
same,GI50,SK-MEL-2,0.92 µM
same,TGI,SK-MEL-2,10.5 µM
same,CC50,SK-MEL-2; [1],> 100 µM
same,GI50,SK-MEL-5,3.53 µM
same,TGI,SK-MEL-5,16.4 µM
same,CC50,SK-MEL-5; [1],88.1 µM
same,GI50,UACC-62,0.5 µM
same,TGI,UACC-62,4.53 µM
same,CC50,UACC-62; [1],74.1 µM
same,CC50,CCRF-CEM; [1],> 100 µM
same,GI50,CCRF-CEM,0.15 µM
same,TGI,CCRF-CEM,25.4 µM
same,GI50,SNB-75,1.42 µM
same,TGI,SNB-75,41.3 µM
same,CC50,SNB-75; [1],> 100 µM
same,GI50,KM12,1.72 µM
same,TGI,KM12,31.5 µM
same,CC50,KM12; [1],> 100 µM
same,CC50,MALME-3M; [1],> 100 µM
same,GI50,MALME-3M,1.34 µM
same,TGI,MALME-3M,28.6 µM
same,CC50,MDA-N; [1],> 100 µM
same,GI50,MDA-N,1.01 µM
same,TGI,MDA-N,26.4 µM
same,GI50,NCI-H23,1.06 µM
same,TGI,NCI-H23,22.9 µM
same,CC50,NCI-H23; [1],> 100 µM
same,GI50,UO-31,1.48 µM
same,TGI,UO-31,32.3 µM
same,CC50,UO-31; [1],> 100 µM
same,GI50,HCT-15,1.07 µM
same,TGI,HCT-15,50.9 µM
same,CC50,HCT-15; [1],> 100 µM
same,CC50,MDA-MB-231/ATCC; [1],> 100 µM
same,GI50,MDA-MB-231/ATCC,1.94 µM
same,TGI,MDA-MB-231/ATCC,>100 µM
same,CC50,LOX IMVI; [1],> 100 µM
same,GI50,LOX IMVI,0.21 µM
same,TGI,LOX IMVI,8.99 µM
